We go through 9 molecules from the NIST ThermoML archive (doi:10.1021/acs.jced.5b00679).

Numbers after ± are expanded uncertainties.

For data set [1] the following is noted: Crystal; DTA.
Data set [2] is described as follows: Molar enthalpy of transition or fusion. The note with it: Crystal; DSC.

With `CC(C)n1c2ccccc2c2ccccc21` [9-(1-methylethyl)carbazole], the Normal melting temperature in data set [1] was 120.8 ± 2 °C. In data set [2], the “Molar enthalpy of transition or fusion” value is 4.36 ± 0.184 kcal/mol.
For the molecule `c1ccc2c(c1)[nH]c1ccccc12` [9H-carbazole], the Normal melting temperature in data set [1] came out at 244.0 ± 2 °C. Further, in data set [2], the “Molar enthalpy of transition or fusion” value was determined as 6.62 ± 0.201 kcal/mol.
For `Cn1c2ccccc2c2ccccc21` [9-methyl-9H-carbazole], in that order: 88 ± 2 °C and 3.93 ± 0.136 kcal/mol.
On to `CCn1c2ccccc2c2ccccc21` [9-ethylcarbazole], for which the Normal melting temperature in data set [1] stood at 69.2 ± 2 °C. Further, the “Molar enthalpy of transition or fusion” value in data set [2] turned out to be 3.96 ± 0.12 kcal/mol.
`c1ccc2c3c([nH]c2c1)CCCC3` [2,3,4,9-tetrahydro-1H-carbazole]: the Normal melting temperature in data set [1] came out at 118.2 ± 2 °C. Further, the “Molar enthalpy of transition or fusion” value in data set [2] amounted to 4.27 ± 0.1 kcal/mol.
For `CCCn1c2ccccc2c2ccccc21` [N-propyl-9H-carbazole], in that order: 47.2 ± 2 °C and 4.68 ± 0.117 kcal/mol.
For `CCCCn1c2ccccc2c2ccccc21` [N-butyl-9H-carbazole], the Normal melting temperature in data set [1] was 57.5 ± 2 °C. The “Molar enthalpy of transition or fusion” value in data set [2] stood at 5.45 ± 0.136 kcal/mol.
For the molecule `CCn1c2c(c3c1CCCC3)CCCC2` [9-ethyl-2,3,4,5,6,7,8,9-octahydro-1H-carbazole], the Normal melting temperature in data set [1] was determined as 43 ± 2 °C. For the same molecule, the “Molar enthalpy of transition or fusion” value in data set [2] is 4.92 ± 0.139 kcal/mol.
For `CCn1c2c(c3ccccc31)CCCC2` [9-ethyl-2,3,4,9-tetrahydrocarbazole], in that order: 9.2 ± 2 °C and 2.97 ± 0.0765 kcal/mol.
